In one data set the test system is HCT116. The data set is described as follows: Inhibitory effect on cell growth, HCT116 cells. It is filed as cell-based, human. How it is done: (§1) Cells are grown in McCoy's 5a medium with 1.5 mM L-glutamine supplemented with 10% FBS.
A further data set deals with HT-29 cells. The data set is described as follows: Inhibitory effect on cell growth (MTT assay), HT-29 cells. It is filed as cell-based. Here is the method:
Using HT-29 cells, the effect of the polyal-SN38 conjugates on cell growth was evaluated.
as §1
(In general: Tetrazolium assays rely on reduction of a dye to a coloured formazan, in cell work by metabolically active cells.)

For data set [1] the following is noted: pH 7.4.
Where [2] appears, read: Homo sapiens, HT-29, HT29, growth inhibition 72 hours post treatment, MTT.

From patent US8524214B2, “Polyal drug conjugates comprising variable rate-releasing linkers” (Mersana Therapeutics, Inc., priority 2009, dated 2013) come the findings set out here.

Like-named read-outs stand apart in the source and are kept apart here.

For orientation: IC50 means the concentration that gives 50% inhibition.

For `CCc1c2c(nc3ccc(O)cc13)-c1cc3c(c(=O)n1C2)COC(=O)[C@]3(O)CC` [SN38], the values for the IC50 in the data set on HCT116 and in the data set on HT-29 cells (read-out: HT29 IC50) were 9 nM and 25 nM, respectively. In the case of `CC[C@@]1(O)C(=O)OCc2c1cc1n(c2=O)Cc2cc3ccccc3nc2-1` [Camptothecin (CPT), Camptothecin], the IC50 is 23 nM with HCT116 (Homo sapiens, HCT-116) and 83 nM in the data set with HT-29 cells (setting [2]). As to PHF-GA-Ala-SN38 [Conjugate S4], the “Release half-lives of SN38 conjugates, T½” value (shortened to “Release half-lives”) in data set [1] was 54.2 h. As to `CCc1c2c(nc3ccc(OC(=O)N4CCC(N5CCCCC5)CC4)cc13)-c1cc3c(c(=O)n1C2)COC(=O)[C@]3(O)CC` [Irinotecan], the IC50 came to 4650 nM in the data set on HCT116 (Homo sapiens, HCT-116) and 4430 nM with HT-29 cells (setting [2]). Turning to PHF-SA-Ala-SN38 [Conjugate S3], in data set [1], the “Release half-lives” value is on record as 36.9 h. Consider PHF-GA-Gly-SN38 [Conjugate S2], for which the “Release half-lives” value in data set [1] is recorded as 18.5 h. PHF-SA-Gly-SN38 [Conjugate S1]: the “Release half-lives” value in data set [1] is given as 2.0 h.
